Activity calls are given as the source filed them.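 Rule for the calls: active = compounds giving half or more protection of infected cells from virus-caused growth loss, again on retest; inactive = the rest.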
Tested on: CEM cells HIV-1 protection, formazan growth assay
Assay: NCI AIDS Antiviral Assay
Conditions: for IC50: measured here: growth of uninfected CEM cells
In short: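 Human CEM cells, uninfected and HIV-1-infected, exposed to five drug concentrations; growth measured by soluble formazan assay and scored as percent protection from infection, with protecting compounds retested.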

SMILES	outcome	EC50 [µM]	IC50 [µM]
CNC(=S)NC(=S)N(C)C	inactive		
O=c1oc2c(-c3c(O)c(=O)oc4ccccc34)cc(O)cc2s1		> 209	97.7
CCn1c(=O)c2c3ccc(O)cc3oc2c2ccc(O)cc21		> 200	89.1
Cc1ccc2c(c1C)C(=O)/C(=C/c1cccc(C)c1C(=O)O)C2	inactive		
NC1=NS(=O)(=O)N=C(N)C1=Cc1ccc([N+](=O)[O-])o1		> 871	4.9
Clc1c2ncccc2cc2n[nH]nc12		> 200	> 100
Cc1cccc(-c2cc(=O)c3cc(C)c(C)c(C(=O)O)c3o2)c1	inactive		
COC(=O)c1cc(=O)n(Cc2ccco2)c(=Nc2ccccc2)s1		> 100	13.8
COC(=O)c1cc(C(=CCl)c2cc(C(=O)OC)c(OC)c(Br)c2C)c(C)c(Br)c1OC		> 200	6.46
CN(C)C(C1=C(O)C(c2ccccc2)N(c2ccccc2)C1=O)N1CCOCC1 (stereo unspecified)	inactive		
CC(=O)n1c2ccc(Br)cc2c2nc3ccccc3nc21		> 200	> 200
Cc1nc(C(N)=S)sc1C(=O)CC(=O)C(=O)Nc1cccc(Cl)c1C		> 170	> 170
CCCCC(CC)COS(=O)(=O)O (stereo unspecified)		145	> 200
O=C(O)C/C=C(\C(=O)O)N1C(=O)c2ccccc2C1=O	inactive		
COc1ccc(/C=C2N=C(/C=C/c3ccccc3)OC\2=O)cc1OC		11	97.7
C/C=C\C(O)C#Cc1cnc(OC)nc1OC (stereo unspecified)		> 200	42.7
O=[As](O)(O)c1ccc(F)cc1		> 200	> 200
CC1(C)NC(=S)NC1=O		> 200	> 200
O=C(CN1C(=O)c2cccc3c(Br)ccc(c23)C1=O)c1ccc(Cl)cc1		> 200	33.1
CC(C)CN(CC(C)C)CN1C(=O)/C(=C/c2ccc([N+](=O)[O-])cc2)SC1=S		> 200	15.8
COc1cccc(C=NC23CC4CC(CC(C4)C2)C3)c1		> 69.2	> 69.2
CCCc1cc(=O)oc2c3c(c4c(c12)OC(C)(C)C=C4)O[C@@H](C)[C@H](C)[C@@H]3O[Si](C)(C)C(C)(C)C		> 200	> 200
CC(C)=C/C(CC(O)(C(F)(F)F)C(F)(F)F)=N\O		> 200	> 200
CC(C)CC(=O)NC(C(=O)NC(C(=O)NC(CC(C)C)C(O)CC(=O)NC(C)C(=O)NC(CC(C)C)C(O)CC(=O)O)C(C)C)C(C)C (stereo unspecified)		> 36.3	> 36.3

SMILES	outcome	EC50 [µM]	IC50 [µM]
O=C1c2cccc3cccc(c23)C(=O)N1Cc1ccccc1		> 200	61.7
Nc1ccccc1S(=O)(=O)c1ccccc1	active		
CCOC(=O)C1Sc2ccccc2N=C1C (stereo unspecified)		> 30.9	> 30.9
COC(=O)C(CC(C)=O)CS(=O)(=O)CC(=O)C(=O)Nc1cccc([N+](=O)[O-])c1 (stereo unspecified)		> 162	> 162
O/N=C(\C(=N/O)Nc1ccc(-c2ccc(NC(=N/O)/C(=N\O)c3ccccc3)cc2)cc1)c1ccccc1		> 37.2	30.9
COC(=O)/C(=N\O)C(C(=O)C=C(C)C)C(=O)C(=O)Nc1ccccc1C (stereo unspecified)		> 692	> 692
CCCCCCCCCCCC(=O)OCCOCCOCCOCCOCCOC(=O)CCCCCCCCCCC	inactive		
O=S(O)CCCCSSCc1ccccc1CSSCCCCS(=O)O	inactive		
COc1ccc(-n2cnc3c2NC(C)(C)N=C3C(N)=O)c(OC)c1		> 200	> 200
COCOc1c(OC)c(C2(O)C(=O)N(C)c3ccccc32)c(OCOC)c(OC)c1C1(O)C(=O)N(C)c2ccccc21 (stereo unspecified)		> 200	42.7
O=C1C=C/C(=N\N=C(c2ccccc2)c2ccccc2)O1		> 200	145
O=C(CC(O)(c1ccccc1)c1ccc(Cl)cc1)NC(=O)c1ccccc1O (stereo unspecified)		> 13.2	> 13.2
O=NN1CCN=C1c1ccc([N+](=O)[O-])cc1		> 112	33.9
Cc1cn(C2CC(Br)=NO2)c(=O)[nH]c1=O (stereo unspecified)		> 200	34.7
COc1ccc2c(C)cc(=O)oc2c1OC		> 200	> 200
O[C@@H]1[C@H]2CC(OCc3ccccc3)C[C@H]2C[C@@H]1O (stereo partly specified)		> 1000	> 1000
O=C(C=P(c1ccccc1)(c1ccccc1)c1ccccc1)C12CC3CC(CC(C3)C1)C2		> 100	6.61
COP(=O)(OC)C(Cc1c[nH]c2ccccc12)NC(=O)OCc1ccccc1 (stereo unspecified)		> 200	> 200
CCOC(=O)C(C(CC(=O)OC)NC(=O)OCc1ccccc1)C1(C)OCCO1 (stereo unspecified)		> 251	> 251
COc1ccc2c(c1)CC[C@@H]1[C@@H]2CC[C@]2(C)/C(=N/OCCN3CCCC3)CC[C@@H]12		> 200	1.12
COC1=CC2(C=CC1=O)CCC(=O)O2 (stereo unspecified)		10.5	174
Nc1ccccc1/C=C/c1ccnc2ccccc12		0.0631	40.7
O=[As](O)(O)c1cccc(F)c1		> 200	107

— PubChem BioAssay AID179 (DTP/NCI, 2004)
